Laboratory results: US10543212B2, “Substituted amines for treating cardiac diseases” (Cardurion Pharmaceuticals, LLC, priority 2017, dated 2020)

These compounds were tested against T1, Full-length, GST-tagged, human CaMKIIδ (Homo sapiens, UniProt Q13557) (assay: CaMKIIδ binding assay (TR-FRET with BODIPY-labeled probe ligand)). Conditions: Table 2; CaMKIIδ binding assay, activity given as class A/B/C.
T1 construct: Full-Length, Glutathione-S-Transferase(GST)-Tagged, Human CaMKIIδ was purchased from Carna Biosciences; purchased Carna Biosciences 02-111
T1 sequence (Q13557 1-478 isoform Q13557-12): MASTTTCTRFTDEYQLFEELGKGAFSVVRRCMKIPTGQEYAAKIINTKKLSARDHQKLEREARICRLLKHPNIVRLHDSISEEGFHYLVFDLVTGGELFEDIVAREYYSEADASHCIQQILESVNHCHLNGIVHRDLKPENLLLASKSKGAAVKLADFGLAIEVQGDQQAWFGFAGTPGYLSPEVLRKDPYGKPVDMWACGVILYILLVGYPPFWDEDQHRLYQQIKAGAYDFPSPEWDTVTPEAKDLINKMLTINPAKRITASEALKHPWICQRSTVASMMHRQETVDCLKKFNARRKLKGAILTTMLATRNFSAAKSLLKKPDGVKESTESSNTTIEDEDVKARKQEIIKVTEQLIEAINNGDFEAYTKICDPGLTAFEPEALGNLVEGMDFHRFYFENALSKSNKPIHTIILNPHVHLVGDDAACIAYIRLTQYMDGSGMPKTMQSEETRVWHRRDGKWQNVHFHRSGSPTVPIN
Outline: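 Compounds were tested as 4-fold, eight-point series for 1 hr at room temperature, and IC50 was obtained by logistic fitting against a 3 μM parent-compound control. Signal came from displacement of a 300 nM BODIPY ligand from 0.5 nM GST-CaMKIIδ, detected via Tb-anti-GST in calmodulin/Ca2+ (pH 7.6).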
C[C@@H](Cn1cnnn1)Oc1cc(-c2cnc(Nc3cn(CS(C)(=O)=O)nc3C(F)(F)F)nc2)ccc1Cl [Example 848, (S)-5-(3-((1-(1H-tetrazol-1-yl)propan-2-yl)oxy)-4-chlorophenyl)-N-(1-((methylsulfonyl)methyl)-3-(trifluoromethyl)-1H-pyrazol-4-yl)pyrimidin-2-amine] gave an IC50 of less than 10 nM.
In the case of C[C@@H](Cn1cnnn1)Oc1cc(-c2cnc(Nc3cn([C@H]4C[C@@H](N5CCOCC5)C4)nc3OCC(F)F)nc2)ccc1Cl [Example 849, (S)-5-(3-((1-(1H-tetrazol-1-yl)propan-2-yl)oxy)-4-chlorophenyl)-N-(3-(2,2-difluoroethoxy)-1-(cis-3-morpholinocyclobutyl)-1H-pyrazol-4-yl)pyrimidin-2-amine], the IC50 is reported as less than 10 nM.
Work on C[C@@H](Cn1cnnn1)Oc1cc(-c2cnc(Nc3cn([C@H]4C[C@@H](NC5CCOCC5)C4)nc3OCC(F)F)nc2)ccc1Cl [Example 850, (S)-5-(3-((1-(1H-tetrazol-1-yl)propan-2-yl)oxy)-4-chlorophenyl)-N-(3-(2,2-difluoroethoxy)-1-(cis-3-((tetrahydro-2H-pyran-4-yl)amino)cyclobutyl)-1H-pyrazol-4-yl)pyrimidin-2-amine] yielded an IC50 of less than 10 nM.
For C[C@@H](Cn1cnnn1)Oc1cc(-c2cnc(Nc3cn(C4CCC(CC(=O)O)CC4)nc3C(F)(F)F)nc2)ccc1Cl (stereo partly drawn) [Example 851, (S)-2-(4-(4-((5-(3-((1-(1H-tetrazol-1-yl)propan-2-yl)oxy)-4-chlorophenyl)pyrimidin-2-yl)amino)-3-(trifluoromethyl)-1H-pyrazol-1-yl)cyclohexyl)acetic acid], the IC50 was no less than 100 nM.
For C[C@@H](Cn1cnnn1)Oc1cc(-c2cnc(Nc3cn(C4CCC(CC(N)=O)CC4)nc3C(F)(F)F)nc2)ccc1Cl (stereo partly drawn) [Example 852, (S)-2-(4-(4-((5-(3-((1-(1H-tetrazol-1-yl)propan-2-yl)oxy)-4-chlorophenyl)pyrimidin-2-yl)amino)-3-(trifluoromethyl)-1H-pyrazol-1-yl)cyclohexyl)acetamide], the IC50 was no less than 100 nM.
For C[C@@H](Cn1cnnn1)Oc1cc(-c2cnc(Nc3cn(CC4(O)CCC4)nc3OCC(F)(F)F)nc2)ccc1Cl [Example 853, (S)-1-((4-((5-(3-((1-(1H-tetrazol-1-yl)propan-2-yl)oxy)-4-chlorophenyl)pyrimidin-2-yl)amino)-3-(2,2,2-trifluoroethoxy)-1H-pyrazol-1-yl)methyl)cyclobutan-1-ol], the IC50 was less than 10 nM.
With C[C@@H](Cn1cnnn1)Oc1cc(-c2cnc(Nc3cn(C4CC5(C4)CN(C4COC4)C5)nc3OCC(F)(F)F)nc2)ccc1Cl [Example 854, (S)-5-(3-((1-(1H-tetrazol-1-yl)propan-2-yl)oxy)-4-chlorophenyl)-N-(1-(2-(oxetan-3-yl)-2-azaspiro[3.3]heptan-6-yl)-3-(2,2,2-trifluoroethoxy)-1H-pyrazol-4-yl)pyrimidin-2-amine] the IC50 was less than 10 nM.
C[C@@H](Cn1cnnn1)Oc1cc(-c2cnc(Nc3cn(CC4(O)CCC4)nc3C(F)(F)F)nc2)ccc1Cl [Example 855, (S)-1-((4-((5-(3-((1-(1H-tetrazol-1-yl)propan-2-yl)oxy)-4-chlorophenyl)pyrimidin-2-yl)amino)-3-(trifluoromethyl)-1H-pyrazol-1-yl)methyl)cyclobutan-1-ol] was tested, and the IC50 was less than 10 nM.
Compound C[C@@H](Cn1cnnn1)Oc1cc(-c2cnc(Nc3cn([C@H]4CC[C@@H](N5CC(O)(C(F)(F)F)C5)CC4)nc3C(F)(F)F)nc2)ccc1Cl [Example 856, 1-(cis-4-(4-((5-(3-(((S)-1-(1H-tetrazol-1-yl)propan-2-yl)oxy)-4-chlorophenyl)pyrimidin-2-yl)amino)-3-(trifluoromethyl)-1H-pyrazol-1-yl)cyclohexyl)-3-(trifluoromethyl)azetidin-3-ol] has an IC50 of 10 to 100 nM.
In the case of C[C@@H](Cn1cnnn1)Oc1cc(-c2cnc(Nc3cn([C@H]4CC[C@H](N5CC(O)(C(F)(F)F)C5)CC4)nc3C(F)(F)F)nc2)ccc1Cl [Example 857, 1-(trans-4-(4-((5-(3-(((S)-1-(1H-tetrazol-1-yl)propan-2-yl)oxy)-4-chlorophenyl)pyrimidin-2-yl)amino)-3-(trifluoromethyl)-1H-pyrazol-1-yl)cyclohexyl)-3-(trifluoromethyl)azetidin-3-ol], the IC50 is reported as less than 10 nM.
C[C@@H](Cn1cnnn1)Oc1cc(-c2cnc(Nc3cn(CC4(O)CCC4)nc3C(F)(F)F)nc2)ccc1F [Example 858, (S)-1-((4-((5-(3-((1-(1H-tetrazol-1-yl)propan-2-yl)oxy)-4-fluorophenyl)pyrimidin-2-yl)amino)-3-(trifluoromethyl)-1H-pyrazol-1-yl)methyl)cyclobutan-1-ol] was tested, and the IC50 was 10 to 100 nM.
C[C@@H](Cn1cnnn1)Oc1cc(-c2cnc(Nc3cn(C4CC5(C4)CN(CC(C)(C)O)C5)nc3C(F)(F)F)nc2)ccc1Cl [Example 859, (S)-1-(6-(4-((5-(3-((1-(1H-tetrazol-1-yl)propan-2-yl)oxy)-4-chlorophenyl)pyrimidin-2-yl)amino)-3-(trifluoromethyl)-1H-pyrazol-1-yl)-2-azaspiro[3.3]heptan-2-yl)-2-methylpropan-2-ol] showed an IC50 of less than 10 nM.
Compound C[C@@H](Cn1cnnn1)Oc1cc(-c2cnc(Nc3cn(CC(C)(C)NC(=O)OC(C)(C)C)nc3C(F)(F)F)nc2)ccc1Cl [Example 860, tert-butyl (S)-(1-(4-((5-(3-((1-(1H-tetrazol-1-yl)propan-2-yl)oxy)-4-chlorophenyl)pyrimidin-2-yl)amino)-3-(trifluoromethyl)-1H-pyrazol-1-yl)-2-methylpropan-2-yl)carbamate] has an IC50 of no less than 100 nM.
In the case of C[C@@H](Cn1cnnn1)Oc1cc(-c2cnc(Nc3cn(CC(C)(C)N)nc3C(F)(F)F)nc2)ccc1Cl [Example 861, (S)-5-(3-((1-(1H-tetrazol-1-yl)propan-2-yl)oxy)-4-chlorophenyl)-N-(1-(2-amino-2-methylpropyl)-3-(trifluoromethyl)-1H-pyrazol-4-yl)pyrimidin-2-amine], the IC50 is reported as less than 10 nM.
For CC(=O)NC(C)(C)Cn1cc(Nc2ncc(-c3ccc(Cl)c(O[C@@H](C)Cn4cnnn4)c3)cn2)c(C(F)(F)F)n1 [Example 862, (S)-N-(1-(4-((5-(3-((1-(1H-tetrazol-1-yl)propan-2-yl)oxy)-4-chlorophenyl)pyrimidin-2-yl)amino)-3-(trifluoromethyl)-1H-pyrazol-1-yl)-2-methylpropan-2-yl)acetamide], the IC50 was 10 to 100 nM.
For C[C@@H](Cn1cnnn1)Oc1cc(-c2cnc(Nc3cn([C@H]4CC[C@H](N5CC(F)C5)CC4)nc3OC3COC3)nc2)ccc1Cl [Example 863, 5-(3-(((S)-1-(1H-tetrazol-1-yl)propan-2-yl)oxy)-4-chlorophenyl)-N-(1-(trans-4-(3-fluoroazetidin-1-yl)cyclohexyl)-3-(oxetan-3-yloxy)-1H-pyrazol-4-yl)pyrimidin-2-amine], the IC50 was less than 10 nM.
C[C@@H](Cn1cnnn1)Oc1cc(-c2cnc(Nc3cn([C@H]4CC[C@H](N5CCC(F)(F)C5)CC4)nc3OC3COC3)nc2)ccc1Cl [Example 864, 5-(3-(((S)-1-(1H-tetrazol-1-yl)propan-2-yl)oxy)-4-chlorophenyl)-N-(1-(trans-4-(3,3-difluoropyrrolidin-1-yl)cyclohexyl)-3-(oxetan-3-yloxy)-1H-pyrazol-4-yl)pyrimidin-2-amine] showed an IC50 of less than 10 nM.
Work on CCn1ncc(Nc2ncc(-c3ccc(Cl)c(O[C@@H](C)Cn4cnnn4)c3)cn2)c1C(=O)N1CCOCC1 [Example 865, (S)-(4-((5-(3-((1-(1H-tetrazol-1-yl)propan-2-yl)oxy)-4-chlorophenyl)pyrimidin-2-yl)amino)-1-ethyl-1H-pyrazol-5-yl)(morpholino)methanone] yielded an IC50 of no less than 100 nM.
CCn1cc(Nc2ncc(-c3ccc(Cl)c(O[C@@H](C)Cn4cnnn4)c3)cn2)c(C(=O)N2CCOCC2)n1 [Example 866, (S)-(4-((5-(3-((1-(1H-tetrazol-1-yl)propan-2-yl)oxy)-4-chlorophenyl)pyrimidin-2-yl)amino)-1-ethyl-1H-pyrazol-3-yl)(morpholino)methanone] was tested, and the IC50 was 10 to 100 nM.
COc1ccc(-n2cc(Nc3ncc(-c4ccc(Cl)c(O[C@@H](C)Cn5cnnn5)c4)cn3)c(C(F)(F)F)n2)cn1 [Example 867, (S)-5-(3-((1-(1H-tetrazol-1-yl)propan-2-yl)oxy)-4-chlorophenyl)-N-(1-(6-methoxypyridin-3-yl)-3-(trifluoromethyl)-1H-pyrazol-4-yl)pyrimidin-2-amine] showed an IC50 of no less than 100 nM.
Work on C[C@@H](Cn1cnnn1)Oc1cc(-c2cnc(Nc3cn(-c4ccc(=O)[nH]c4)nc3C(F)(F)F)nc2)ccc1Cl [Example 868, (S)-5-(4-((5-(3-((1-(1H-tetrazol-1-yl)propan-2-yl)oxy)-4-chlorophenyl)pyrimidin-2-yl)amino)-3-(trifluoromethyl)-1H-pyrazol-1-yl)pyridin-2(1H)-one] yielded an IC50 of 10 to 100 nM.
Compound C[C@@H](Cn1cnnn1)Oc1cc(-c2cnc(Nc3cn([C@H]4CC[C@H](N5CCOCC5)CC4)nc3OC[C@@H]3CC3(F)F)nc2)ccc1Cl [Example 869] has an IC50 of less than 10 nM.
Compound C[C@@H](Cn1cnnn1)Oc1cc(-c2cnc(Nc3cn([C@H]4CC[C@@H](N5CCOCC5)CC4)nc3OC[C@@H]3CC3(F)F)nc2)ccc1Cl [Example 870, 5-(3-(((S)-1-(1H-tetrazol-1-yl)propan-2-yl)oxy)-4-chlorophenyl)-N-(3-(((S)-2,2-difluorocyclopropyl)methoxy)-1-(cis-4-morpholinocyclohexyl)-1H-pyrazol-4-yl)pyrimidin-2-amine] has an IC50 of less than 10 nM.
In the case of C[C@@H](Cn1cnnn1)Oc1cc(-c2cnc(Nc3cn([C@H]4CC[C@H](N5CCC[C@H]5CO)CC4)nc3OC[C@@H]3CC3(F)F)nc2)ccc1Cl [Example 871, ((S)-1-(trans-4-(4-((5-(3-(((S)-1-(1H-tetrazol-1-yl)propan-2-yl)oxy)-4-chlorophenyl)pyrimidin-2-yl)amino)-3-(((S)-2,2-difluorocyclopropyl)methoxy)-1H-pyrazol-1-yl)cyclohexyl)pyrrolidin-2-yl)methanol], the IC50 is reported as less than 10 nM.
